Assay in all cases: KinomeScan profiling
Format in all cases: binding

Assay [1] concerns the target T1, BMPR1B (Homo sapiens, UniProt O00238).
T1 construct: purchased KinomeScan®
The note with it: read-out: % control. The gist of the method:
(§1)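 Luminescence (RLU) was converted to percent of control, with DMSO set as 100% and a reference compound as 0%. Test compounds were run at 1 μM against 468 kinases. Kinases showing below 35% of control were scored as bound.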

Assay [2] concerns the target MYO3A (Homo sapiens, UniProt Q8NEV4). The note with it: read-out: % control. Put shortly:
as §1

Assay [3] addresses T2, TYK2(JH1domain-catalytic) (Homo sapiens, UniProt P29597).
T2 construct: tyrosine kinase 2 (TYK2)(JH1domain-catalytic)
T2 sequence (P29597 897-1176 limits assumed): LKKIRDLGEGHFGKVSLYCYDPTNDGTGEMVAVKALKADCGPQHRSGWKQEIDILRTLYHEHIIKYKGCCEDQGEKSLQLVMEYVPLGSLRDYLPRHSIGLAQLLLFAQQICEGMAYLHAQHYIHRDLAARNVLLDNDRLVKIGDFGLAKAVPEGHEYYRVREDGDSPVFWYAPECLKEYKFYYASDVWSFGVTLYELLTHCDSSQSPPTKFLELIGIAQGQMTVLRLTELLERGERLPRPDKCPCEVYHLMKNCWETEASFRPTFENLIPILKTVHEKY
The note with it: read-out: % control. The gist of the method:
as §1

Assay [4] deals with T3, ABL1(M351T)-phosphorylated (Homo sapiens, UniProt P00519, M351T).
T3 construct: purchased KinomeScan®
To be noted: read-out: % control. The gist of the method:
as §1

The target of assay [5] is CDK7 (Homo sapiens, UniProt P50613). To be noted: CDK7, 1 μM; read-out: % control. The gist of the method:
as §1

Assay [6] has as its target PFCDPK1(P. falciparum) (Plasmodium falciparum, UniProt P62344). To be noted: read-out: % control. Put shortly:
as §1

Assay [7] has as its target T4, CTK (Homo sapiens, UniProt P42679).
T4 sequence (P42679 1-507): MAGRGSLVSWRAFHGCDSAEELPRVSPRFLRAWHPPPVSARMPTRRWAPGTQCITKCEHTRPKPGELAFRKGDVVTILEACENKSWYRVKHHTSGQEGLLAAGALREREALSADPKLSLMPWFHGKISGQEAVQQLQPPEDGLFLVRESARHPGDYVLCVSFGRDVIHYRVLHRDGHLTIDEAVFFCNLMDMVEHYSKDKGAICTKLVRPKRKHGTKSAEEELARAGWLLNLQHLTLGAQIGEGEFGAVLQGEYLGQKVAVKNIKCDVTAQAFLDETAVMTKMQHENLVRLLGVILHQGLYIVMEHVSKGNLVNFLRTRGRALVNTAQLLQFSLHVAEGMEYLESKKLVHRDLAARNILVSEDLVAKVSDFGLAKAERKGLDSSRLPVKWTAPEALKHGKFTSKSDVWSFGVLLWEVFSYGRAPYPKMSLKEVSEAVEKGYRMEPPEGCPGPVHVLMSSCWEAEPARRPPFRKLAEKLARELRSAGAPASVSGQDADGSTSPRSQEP
To be noted: read-out: % control. The gist of the method: as §1

Assay [8] concerns the target T5, PIK3CA(Q546K) (Homo sapiens, UniProt P42336, Q546K).
T5 construct: purchased KinomeScan® (panel service)
To be noted: read-out: % control. The gist of the method: as §1

Assay [9] deals with WNK4 (Homo sapiens, UniProt Q96J92). To be noted: WNK4, 1 μM; read-out: % control. The gist of the method: as §1
The target of assay [10] is T6, PRKG1 (Homo sapiens, UniProt Q13976).
T6 sequence (Q13976 1-671): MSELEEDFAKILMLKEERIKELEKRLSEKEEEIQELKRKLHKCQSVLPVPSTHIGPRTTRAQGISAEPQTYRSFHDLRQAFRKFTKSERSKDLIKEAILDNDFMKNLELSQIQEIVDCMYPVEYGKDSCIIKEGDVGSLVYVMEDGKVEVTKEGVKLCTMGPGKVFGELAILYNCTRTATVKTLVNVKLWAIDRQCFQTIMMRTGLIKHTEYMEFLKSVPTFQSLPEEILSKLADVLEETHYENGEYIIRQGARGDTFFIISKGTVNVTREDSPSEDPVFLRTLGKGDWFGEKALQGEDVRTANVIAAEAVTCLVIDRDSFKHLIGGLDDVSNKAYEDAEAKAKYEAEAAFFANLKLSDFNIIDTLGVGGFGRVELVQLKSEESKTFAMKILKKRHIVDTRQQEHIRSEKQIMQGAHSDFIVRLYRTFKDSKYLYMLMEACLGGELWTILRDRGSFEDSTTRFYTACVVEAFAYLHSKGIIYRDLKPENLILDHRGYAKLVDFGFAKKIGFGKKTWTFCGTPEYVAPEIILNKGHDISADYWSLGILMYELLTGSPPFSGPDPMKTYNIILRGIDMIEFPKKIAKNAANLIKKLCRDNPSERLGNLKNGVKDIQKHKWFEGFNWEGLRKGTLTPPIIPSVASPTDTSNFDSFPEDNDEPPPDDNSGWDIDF
To be noted: PRKG1, 1 μM; read-out: % control. The gist of the method:
as §1

Assay [11] deals with FGFR4 (Homo sapiens, UniProt P22455). The note with it: FGFR4, 1 μM; read-out: % control. Put shortly: as §1
Assay [12] addresses EGFR(G719S) (Homo sapiens, UniProt P00533, G719S). To be noted: read-out: % control. Put shortly:
as §1

For assay [13], the target named is PKN1 (Homo sapiens, UniProt Q16512). The note with it: PKN1, 1 μM; read-out: % control. Put shortly:
as §1

Assay [14] addresses NEK6 (Homo sapiens, UniProt Q9HC98). The note with it: NEK6, 1 μM; read-out: % control. The gist of the method:
as §1

Assay [15] deals with CDK11 (Homo sapiens, UniProt Q9BWU1). To be noted: CDK11, 1 μM; read-out: % control. The gist of the method:
as §1

Assay [16] addresses T7, RSK1(Kin.Dom.1-N-terminal) (Homo sapiens, UniProt Q15418).
T7 construct: RSK1(Kin.Dom.1-N-terminal)
The note with it: read-out: % control. The gist of the method: as §1

Assay [17] has as its target T8, JNK1 (Homo sapiens, UniProt P45983).
T8 construct: purchased KinomeScan®
To be noted: JNK1, 1 μM; read-out: % control. Put shortly:
as §1

Here are results for three molecules from patent US12275731B2, “Azaindole inhibitors of wild-type and mutant forms of LRRK2” (DANA-FARBER CANCER INSTITUTE, INC., priority 2018, dated 2025).

MYO3A, sequence (Q8NEV4 whole entry): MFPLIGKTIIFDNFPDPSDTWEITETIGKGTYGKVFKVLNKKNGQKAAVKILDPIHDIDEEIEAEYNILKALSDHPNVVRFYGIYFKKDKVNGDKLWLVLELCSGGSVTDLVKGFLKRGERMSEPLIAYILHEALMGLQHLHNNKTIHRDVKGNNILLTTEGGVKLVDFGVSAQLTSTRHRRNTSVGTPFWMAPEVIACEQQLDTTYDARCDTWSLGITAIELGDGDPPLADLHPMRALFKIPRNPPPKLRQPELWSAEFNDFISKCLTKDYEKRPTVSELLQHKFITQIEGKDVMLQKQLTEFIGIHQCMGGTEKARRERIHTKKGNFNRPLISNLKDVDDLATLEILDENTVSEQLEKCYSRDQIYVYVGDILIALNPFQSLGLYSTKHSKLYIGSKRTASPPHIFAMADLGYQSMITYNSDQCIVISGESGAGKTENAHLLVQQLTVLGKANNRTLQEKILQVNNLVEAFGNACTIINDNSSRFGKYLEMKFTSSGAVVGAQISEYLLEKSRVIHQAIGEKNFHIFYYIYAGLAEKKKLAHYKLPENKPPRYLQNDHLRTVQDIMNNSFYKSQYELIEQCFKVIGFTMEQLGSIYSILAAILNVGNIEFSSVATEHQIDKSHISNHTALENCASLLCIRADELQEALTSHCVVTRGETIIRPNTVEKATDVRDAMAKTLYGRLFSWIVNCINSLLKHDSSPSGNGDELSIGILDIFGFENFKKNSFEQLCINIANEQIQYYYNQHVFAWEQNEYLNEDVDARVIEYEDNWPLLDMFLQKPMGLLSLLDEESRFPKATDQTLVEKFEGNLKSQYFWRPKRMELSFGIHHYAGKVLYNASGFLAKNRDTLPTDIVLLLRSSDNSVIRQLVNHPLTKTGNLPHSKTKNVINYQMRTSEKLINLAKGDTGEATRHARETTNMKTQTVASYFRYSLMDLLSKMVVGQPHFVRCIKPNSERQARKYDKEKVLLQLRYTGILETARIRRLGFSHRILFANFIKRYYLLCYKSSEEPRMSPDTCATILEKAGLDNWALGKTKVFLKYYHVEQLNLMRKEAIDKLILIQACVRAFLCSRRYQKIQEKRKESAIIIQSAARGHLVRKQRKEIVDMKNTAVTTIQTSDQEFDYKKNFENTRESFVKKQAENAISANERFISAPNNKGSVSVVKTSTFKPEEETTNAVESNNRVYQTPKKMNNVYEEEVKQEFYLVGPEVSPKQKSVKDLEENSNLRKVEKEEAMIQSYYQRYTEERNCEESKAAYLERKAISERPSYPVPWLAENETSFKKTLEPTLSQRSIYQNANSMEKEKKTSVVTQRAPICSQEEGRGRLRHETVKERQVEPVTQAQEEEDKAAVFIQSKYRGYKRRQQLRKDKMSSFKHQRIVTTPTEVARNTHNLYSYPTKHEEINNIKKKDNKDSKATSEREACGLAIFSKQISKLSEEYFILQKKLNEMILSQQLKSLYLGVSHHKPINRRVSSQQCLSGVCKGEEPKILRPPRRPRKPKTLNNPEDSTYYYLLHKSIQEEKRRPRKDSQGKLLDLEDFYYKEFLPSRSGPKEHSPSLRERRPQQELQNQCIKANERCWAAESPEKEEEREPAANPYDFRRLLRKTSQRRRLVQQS
T1 sequence (O00238 14-502): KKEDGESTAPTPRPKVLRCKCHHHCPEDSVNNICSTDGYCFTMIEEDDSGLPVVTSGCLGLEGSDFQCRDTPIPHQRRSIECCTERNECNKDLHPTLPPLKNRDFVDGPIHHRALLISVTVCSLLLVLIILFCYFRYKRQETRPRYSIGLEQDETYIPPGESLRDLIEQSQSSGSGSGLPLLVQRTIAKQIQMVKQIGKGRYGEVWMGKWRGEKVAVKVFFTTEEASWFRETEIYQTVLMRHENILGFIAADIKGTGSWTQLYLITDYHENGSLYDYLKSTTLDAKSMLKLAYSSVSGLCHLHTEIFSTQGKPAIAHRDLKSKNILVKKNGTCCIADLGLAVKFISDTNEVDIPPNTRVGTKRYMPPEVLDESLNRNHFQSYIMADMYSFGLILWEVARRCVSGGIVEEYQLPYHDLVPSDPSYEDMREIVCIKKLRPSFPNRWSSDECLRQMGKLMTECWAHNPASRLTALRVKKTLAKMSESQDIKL
T8 sequence (P45983 whole entry): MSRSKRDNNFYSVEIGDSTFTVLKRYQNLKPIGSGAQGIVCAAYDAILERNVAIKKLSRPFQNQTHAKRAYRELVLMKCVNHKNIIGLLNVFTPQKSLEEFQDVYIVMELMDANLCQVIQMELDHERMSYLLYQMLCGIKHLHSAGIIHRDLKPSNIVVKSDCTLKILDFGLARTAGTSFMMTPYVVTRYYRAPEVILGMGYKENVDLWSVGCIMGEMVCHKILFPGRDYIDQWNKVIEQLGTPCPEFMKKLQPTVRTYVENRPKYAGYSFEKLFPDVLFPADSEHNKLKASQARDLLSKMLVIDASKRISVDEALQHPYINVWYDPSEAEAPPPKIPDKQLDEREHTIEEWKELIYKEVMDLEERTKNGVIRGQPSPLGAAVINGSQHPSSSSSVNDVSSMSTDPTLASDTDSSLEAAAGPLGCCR
T7 sequence (Q15418 62-321 limits assumed): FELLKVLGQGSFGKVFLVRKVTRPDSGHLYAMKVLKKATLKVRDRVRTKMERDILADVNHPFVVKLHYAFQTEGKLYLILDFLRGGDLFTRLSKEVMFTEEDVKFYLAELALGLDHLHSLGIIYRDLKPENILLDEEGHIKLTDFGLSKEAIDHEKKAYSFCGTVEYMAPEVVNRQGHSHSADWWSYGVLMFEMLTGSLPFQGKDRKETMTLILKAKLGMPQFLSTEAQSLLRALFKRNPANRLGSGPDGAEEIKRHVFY
EGFR(G719S), sequence (P00533 25-1210 G719S): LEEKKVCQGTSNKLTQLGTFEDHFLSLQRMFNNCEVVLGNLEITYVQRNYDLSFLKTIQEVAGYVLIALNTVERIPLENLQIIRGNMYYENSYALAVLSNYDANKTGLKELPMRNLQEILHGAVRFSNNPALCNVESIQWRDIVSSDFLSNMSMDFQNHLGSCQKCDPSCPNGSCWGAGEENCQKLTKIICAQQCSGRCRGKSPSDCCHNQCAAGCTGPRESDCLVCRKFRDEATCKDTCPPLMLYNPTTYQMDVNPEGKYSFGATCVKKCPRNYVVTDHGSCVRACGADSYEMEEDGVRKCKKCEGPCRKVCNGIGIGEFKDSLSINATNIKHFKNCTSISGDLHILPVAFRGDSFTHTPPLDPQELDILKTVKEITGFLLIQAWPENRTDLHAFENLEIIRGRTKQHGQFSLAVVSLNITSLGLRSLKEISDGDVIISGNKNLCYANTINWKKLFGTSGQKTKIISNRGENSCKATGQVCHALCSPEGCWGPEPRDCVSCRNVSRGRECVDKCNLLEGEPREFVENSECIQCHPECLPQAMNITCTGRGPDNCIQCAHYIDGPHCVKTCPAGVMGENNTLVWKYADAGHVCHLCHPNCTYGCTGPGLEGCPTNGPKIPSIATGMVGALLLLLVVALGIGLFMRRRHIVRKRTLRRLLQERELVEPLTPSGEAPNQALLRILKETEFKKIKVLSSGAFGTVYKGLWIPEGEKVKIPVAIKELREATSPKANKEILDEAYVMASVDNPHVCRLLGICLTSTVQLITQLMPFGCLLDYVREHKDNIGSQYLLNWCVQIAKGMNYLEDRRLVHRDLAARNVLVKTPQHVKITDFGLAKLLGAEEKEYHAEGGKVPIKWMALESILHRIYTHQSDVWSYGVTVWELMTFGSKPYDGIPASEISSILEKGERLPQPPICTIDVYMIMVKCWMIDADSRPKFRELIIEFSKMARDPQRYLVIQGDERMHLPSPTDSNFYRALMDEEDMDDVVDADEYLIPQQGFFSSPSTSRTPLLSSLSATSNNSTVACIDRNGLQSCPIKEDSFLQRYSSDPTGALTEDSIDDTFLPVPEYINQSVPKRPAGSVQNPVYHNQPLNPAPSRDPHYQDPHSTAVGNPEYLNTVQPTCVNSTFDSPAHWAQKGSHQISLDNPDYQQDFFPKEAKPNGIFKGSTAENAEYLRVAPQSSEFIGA
NEK6, sequence (Q9HC98 whole entry): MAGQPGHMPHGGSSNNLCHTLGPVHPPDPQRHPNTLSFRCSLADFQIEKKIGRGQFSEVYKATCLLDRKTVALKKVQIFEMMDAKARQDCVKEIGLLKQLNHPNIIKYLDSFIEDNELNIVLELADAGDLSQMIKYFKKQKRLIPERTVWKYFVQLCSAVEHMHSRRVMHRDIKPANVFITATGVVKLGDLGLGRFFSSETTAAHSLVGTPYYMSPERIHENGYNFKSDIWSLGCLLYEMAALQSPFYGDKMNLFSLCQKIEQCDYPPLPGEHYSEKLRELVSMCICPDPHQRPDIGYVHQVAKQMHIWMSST
CDK7, sequence (P50613 whole entry): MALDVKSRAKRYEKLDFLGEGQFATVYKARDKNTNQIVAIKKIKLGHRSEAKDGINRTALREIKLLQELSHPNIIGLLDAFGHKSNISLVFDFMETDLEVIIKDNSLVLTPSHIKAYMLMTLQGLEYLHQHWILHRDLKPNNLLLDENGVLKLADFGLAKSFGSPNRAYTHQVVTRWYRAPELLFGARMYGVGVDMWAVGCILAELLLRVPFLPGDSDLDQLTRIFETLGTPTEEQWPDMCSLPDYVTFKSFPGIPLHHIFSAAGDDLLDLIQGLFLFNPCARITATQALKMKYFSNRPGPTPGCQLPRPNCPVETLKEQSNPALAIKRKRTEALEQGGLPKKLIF

As to `CNc1c(-c2cnn([C@H]3CCN(C(C)=O)C[C@@H]3F)c2)cnc2[nH]cc(Cl)c12` [Compound 77, 1-((3S,4S)-4-(4-(3-chloro-4-(methylamino)-1H-pyrrolo[2,3-b]pyridin-5-yl)-1H-pyrazol-1-yl)-3-fluoropiperidin-1-yl)ethan-1-one], the remaining binding at 1 µM in assay [1] was 47%; in assay [2] it was 69%; in assay [3], 15%; in assay [4] it was 75%; in assay [5], 94%; in assay [6], 86%. Further, the remaining binding at 1 µM in [7] was found to be 97%; in [8], 100%; in [9], 77%; in [10] it was 100%; in [11], 61%; in assay [12], 100%. Further, the remaining binding at 1 µM came out at 100% in [13]; 92% in assay [14]; 96% in [15]; 93% in assay [16]; 1.1% in assay [17].
Take `CNc1c(-c2ccc(C(=O)N3CCC(N4CCOCC4)CC3)cc2)cnc2[nH]cc(Cl)c12` [Compound 96, (4-(3-chloro-4-(methylamino)-1H-pyrrolo[2,3-b]pyridin-5-yl)phenyl)(4-morpholinopiperidin-1-yl)methanone]: the remaining binding at 1 µM came out at 54% in assay [1]; 64% in assay [2]; 29% in [3]; 71% in [4]; 90% in assay [5]; 94% in assay [6]. The remaining binding at 1 µM amounted to 100% in assay [7]; 100% in [8]; 84% in [9]; 100% in assay [10]; 59% in assay [11]; 100% in assay [12]. Further, the remaining binding at 1 µM was 95% in assay [13]; 88% in assay [14]; 68% in [15]; 100% in assay [16]; 0.05% in [17].
Take `O=C(c1ccc(-c2cnc3[nH]cc(Cl)c3c2NC2CCCC2)cc1)N1CCC(N2CCOCC2)CC1` [Compound 101, (4-(3-chloro-4-(cyclopentylamino)-1H-pyrrolo[2,3-b]pyridin-5-yl)phenyl)(4-morpholinopiperidin-1-yl)methanone]: the remaining binding at 1 µM in [1] is 95%; in assay [2], 100%; in assay [3], 100%; in assay [4], 93%; in assay [5] it was 93%; in assay [6], 95%. Also, the remaining binding at 1 µM amounted to 95% in assay [7]; 93% in assay [8]; 100% in [9]; 89% in [10]; 85% in assay [11]; 100% in assay [12]. The remaining binding at 1 µM was 100% in assay [13]; 100% in [14]; 35% in assay [15]; 80% in assay [16]; 7.1% in assay [17].
